Results published in patent US7718614B2 (Kurume University, priority 2003, dated 2010).
Values joined by “and” are separate entries in the source; they are usually repeats but may differ in a detail not shown here. Identical values can stand only once. “Also recorded” adds a separate entry of the source.

How the values were obtained:
HRPC patients [1] = details: phase III study; cited from earlier work
[2] = system: peptide-specific CTL precursors in PBMCs; assay: Peptide-specific CTL precursor assay (IFN-γ production of peptide-stimulated PBMCs), Example 1; type: cell-based, human; design: key to Cellular response to peptide during the combination therapy, 12th / Cellular response to peptide during the combination therapy, 6th / Cellular response to peptide during the combination therapy, Pre: Ar: p* ≦ 0.1 and 500 ≦ net**; A: p ≦ 0.05 and 50 ≦ net; B: p ≦ 0.05 and 25 ≦ net < 50; C: 0.05 < p < 0.1 and 50 ≦ net; AAAA: all four wells of quadruplicate assay were positive; AAA: three wells of quadruplicate assay were positive; AA: two wells of quadruplicate assay were positive; details: PBMCs of the individual case; for Cellular response to peptide during the combination therapy, 6th: after 6th vaccination; for Cellular response to peptide during the combination therapy, Pre: before combination therapy, grade of each positive well of quadruplicate IFN-γ assay; for Cellular response to peptide during the combination therapy, 12th: after 12th vaccination; for Cellular response to peptide during the combination therapy, 18th: after 18th vaccination;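 for all read-outs here: PBMCs cultured with each peptide at 10 µM, restimulated at 20 µM every 3 days up to 12 days, then 18 hr with peptide-pulsed target cells, IFN-γ by ELISA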
Protocol: Before the first vaccination and 7 days after every 6th vaccination, 30 ml of peripheral blood was obtained, and PBMCs were isolated by means of Ficoll-Conray density gradient centrifugation. Peptide-specific CTL precursors in PBMCs were detected using a previously reported culture method [24]. Briefly, PBMCs (1×10^5 cells/well) were incubated with 10 μM of each peptide in U-bottom-type 96-well microculture plates (Nunc, Roskilde, Denmark) in 200 μl of culture medium. The culture medium contained 45% RPMI-1640 medium, 45% AIM-V™ medium (Invitrogen Corp., Carlsbad, Calif.), 10% FCS, 100 U/ml of interleukin-2 (IL-2) and 0.1 mM MEM nonessential amino acid solution (Invitrogen Corp.). Half of the medium was removed and replaced with the new medium containing a corresponding peptide (20 μM) every 3 days for up to 12 days. […] The target cells (C1R-A2402 or T2, 1×10^4/well) were pulsed with each peptide (10 μM) for 2 hr, and then effector cells (1×10^5/well) were added to each well with the final volume of 200 μl. After incubation for 18 hr, the supernatants (100 μl) were collected, and the amounts of IFN-γ were measured using an enzyme-linked immuno-sorbent assay (ELISA) (limit of sensitivity: 10 pg/ml). All experiments were performed in the four different wells with duplicate assays. […] Peptides were chosen based upon evaluation of all 4 wells by the order shown above.
Peptide-specific CTL precursors in PBMCs were detected using a previously reported culture method [24], while an ELISA was used to detect the serum IgG levels specific for the peptides administrated, as reported previously [13-15]. […] Namely, PBMCs were harvested every 2 weeks and were cultured (10^4 cells/well) for 2 days in triplicate assays with 10 μl M of phytohemagglutinin (PHA), 10 ng/ml of Epstein-Bar virus (EBV)-derived peptide with HLA-A24 or -A2 binding motif, and 10 ng/ml of two different peptides under vaccination. After 2 days in culture, the amounts of IFN-γ in cell free supernatants were measured in triplicate assays, and viable cell numbers were also counted. To avoid biases in each assay, all the PBMCs were once cryopreserved and the four different PBMCs (two from healthy donors, one from patients PBMCs harvested 2 weeks before the latest vaccination, and one from the latest vaccination) were thawed at the same time in the morning of the experiment. The PBMCs from healthy donors were from the same donors throughout the series of immunological monitoring. Responses (IFN-γ production) to PHA, EBV-peptide, and the vaccinated peptides were considered to be mediated by resting T cells, memory T cells, and activated T cells, respectively.

[3] = system: peptide-specific CTL precursors in PBMCs; assay: Peptide-specific CTL precursor assay (IFN-γ production), Example 2; type: cell-based, human; details: for Cellular response to peptide, 6th (mean specific IFN-γ production): post(6th)-vaccination PBMCs of the individual patient, * p ≦ 0.05, ** p ≦ 0.10 increased versus pre; for Cellular response to peptide, Pre (mean specific IFN-γ production): pre-vaccination PBMCs of the individual patient, response to HIV peptide subtracted
Protocol: Before the first vaccination and 7 days after every 6th vaccination, 30 ml of peripheral blood was obtained, and PBMCs were isolated by means of Ficoll-Conray density gradient centrifugation. Peptide-specific CTL precursors in PBMCs were detected using a previously reported culture method [24]. Briefly, PBMCs (1×10^5 cells/well) were incubated with 10 μM of each peptide in U-bottom-type 96-well microculture plates (Nunc, Roskilde, Denmark) in 200 μl of culture medium. The culture medium contained 45% RPMI-1640 medium, 45% AIM-V™ medium (Invitrogen Corp., Carlsbad, Calif.), 10% FCS, 100 U/ml of interleukin-2 (IL-2) and 0.1 mM MEM nonessential amino acid solution (Invitrogen Corp.). Half of the medium was removed and replaced with the new medium containing a corresponding peptide (20 μM) every 3 days for up to 12 days. […] The target cells (C1R-A2402 or T2, 1×10^4/well) were pulsed with each peptide (10 μM) for 2 hr, and then effector cells (1×10^5/well) were added to each well with the final volume of 200 μl. After incubation for 18 hr, the supernatants (100 μl) were collected, and the amounts of IFN-γ were measured using an enzyme-linked immuno-sorbent assay (ELISA) (limit of sensitivity: 10 pg/ml). All experiments were performed in the four different wells with duplicate assays.
All patients were vaccinated with up to 4 peptides selected from the 16 candidates by pre-vaccination measurements.

peptide-specific IgG [4] = assay: ELISA of serum IgG specific for the administered peptides, Example 1; type: in vivo, human; design: key: −: absent; +: present, low titer; ++: present, high titer; details: serum of the individual case; for Anti-peptide IgG during the combination therapy, 6th: after 6th vaccination; for Anti-peptide IgG during the combination therapy, 12th: after 12th vaccination; for Anti-peptide IgG during the combination therapy, 18th: after 18th vaccination; for Anti-peptide IgG during the combination therapy, Pre: before combination therapy
peptide-specific IgG [5] = assay: ELISA of serum anti-peptide IgG, Example 2; type: in vivo, human; design: key: −: absent; +: present, low titer; ++: present, high titer; details: serum of the individual patient; for Anti-peptide IgG, 6th: after 6th vaccination; for Anti-peptide IgG, Pre: pre-vaccination
Protocol: Peptide-specific CTL precursors in PBMCs were detected using a previously reported culture method, while an ELISA was used to detect the serum IgG levels specific for the peptides administrated, as reported previously. In addition, a new monitoring method was conducted to carefully measure the estramustine-induced immunosuppression. Namely, PBMCs were harvested every 2 weeks and were cultured (10^4 cells/well) for 2 days in triplicate assays with […] of phytohemagglutinin (PHA), 10 ng/ml of Epstein-Bar virus (EBV)-derived peptide with HLA-A24 or -A2 binding motif, and 10 ng/ml of two different peptides under vaccination. After 2 days in culture, the amounts of IFN-γ in cell free supernatants were measured in triplicate assays, and viable cell numbers were also counted. To avoid biases in each assay, all the PBMCs were once cryopreserved and the four different PBMCs (two from healthy donors, one from patients PBMCs harvested 2 weeks before the latest vaccination, and one from the latest vaccination) were thawed at the same time in the morning of the experiment. The PBMCs from healthy donors were from the same donors throughout the series of immunological monitoring. Responses (IFN-γ production) to PHA, EBV-peptide, and the vaccinated peptides were considered to be mediated by resting T cells, memory T cells, and activated T cells, respectively.
Except for the following points, substantially the same approach was employed as Example 1.

PBMCs [6] = assay: Immunosuppression during combination therapy, Example 2; details: half dose (280 mg/day) with the peptide
HRPC patients [7] = assay: Combination therapy by dose of estramustine phosphate, Example 3; type: in vivo, human
PBMCs [8] = assay: Monitoring of estramustine-induced immunosuppression (IFN-γ production of PBMCs to PHA, EBV-peptide and vaccinated peptides), Example 1
[9] = estramustine 140 mg/day combined with peptide vaccination, 4 cases
[10] = estramustine 280 mg/day combined with peptide vaccination, 32 cases
[11] = estramustine 560 mg/day combined with peptide vaccination, 5 cases

Compound | Cellular response to peptide during the combination therapy, 6th [2] | Cellular response to peptide during the combination therapy, Pre [2] | Cellular response to peptide, 6th (mean specific IFN-γ production) [3] | Cellular response to peptide, Pre (mean specific IFN-γ production) [3] | Anti-peptide IgG during the combination therapy, 6th (peptide-specific IgG [4]) | Anti-peptide IgG during the combination therapy, 12th (peptide-specific IgG [4]) | Anti-peptide IgG during the combination therapy, 18th (peptide-specific IgG [4]) | Anti-peptide IgG during the combination therapy, Pre (peptide-specific IgG [4]) | Anti-peptide IgG, 6th (peptide-specific IgG [5]) | Anti-peptide IgG, Pre (peptide-specific IgG [5]) | Cellular response to peptide during the combination therapy, 12th [2] | Cellular response to peptide during the combination therapy, 18th [2] | further results
CC[C@]1(O)C[C@@H]2CN(CCc3c([nH]c4ccccc34)[C@@](C(=O)OC)(c3cc4c(cc3OC)N(C)[C@H]3[C@@](O)(C(=O)OC)[C@H](OC(C)=O)[C@]5(CC)C=CCN6CC[C@]43[C@@H]65)C2)C1 [vinblastine] |  |  |  |  |  |  |  |  |  |  |  |  | Rate of neutropenia, grade 2 (HRPC patients [1]): 27%; Rate of neutropenia, grade 3 (HRPC patients [1]): 18%; Rate of neutropenia, grade 4 (HRPC patients [1]): 9%
HYTNASDGL [lck208-216] | AA | A (p ≦ 0.05 and 50 ≦ net) | 0 pg/mL and 676 pg/mL and 58.8 pg/mL | 34.8 pg/mL and 5.8 pg/mL and 26.3 pg/mL | − | − | − and + | − | − | − (2×) and + |  |  | 
AYDFLYNYL [SART 2161-169] | Ar (p* ≦ 0.1 and 500 ≦ net**) | A (p ≦ 0.05 and 50 ≦ net) |  | 0 pg/mL | − | − | − | − |  | + | B (p ≦ 0.05 and 25 ≦ net < 50) and AAC | ArA and ArArAA | 
VYDYNCHVDL [SART 3109-118] | ArA and ArArArA | ArAA and ArArArA | 25 pg/ml and 27.3 pg/ml and 534** pg/ml and 170.8 pg/ml and 750** pg/ml and 610.8* pg/ml and 250 pg/ml and 496 pg/ml and 22.3 pg/ml and 0 pg/ml and 681.8 pg/ml | 14.3 pg/ml and 26 pg/ml and 12.3 pg/ml and 5.3 pg/ml and 5.5 pg/ml and 0 pg/ml (2×) and 625 pg/ml and 35.8 pg/ml and 30.3 pg/ml and 25.3 pg/ml and 2.8 pg/ml | ++ and + and − | ++ and − | ++ and + | + and − (2×) | + (8×) and ++ and − | + (11×) and − | B (p ≦ 0.05 and 25 ≦ net < 50); also recorded: ArArArA | ArArAA | 
C[C@]12CC[C@@H]3c4ccc(OC(=O)N(CCCl)CCCl)cc4CC[C@H]3[C@@H]1CC[C@@H]2OP(=O)(O)O [estramustine phosphate, Estramustine phosphate] |  |  |  |  |  |  |  |  |  |  |  |  | Immunosuppression (PBMCs [6]): no significant immunosuppression in most cases; Clinical Response, number of PD (HRPC patients [7]; [9]): 3; Clinical Response, number of SD (HRPC patients [7]; [9]): 1; Response, Cellular Immunity (HRPC patients [7]; [9]): 3/4; Response, Humoral Immunity (HRPC patients [7]; [9]): 4/4; Clinical Response, number of PD (HRPC patients [7]; [10]): 12PD; Clinical Response, number of PR (HRPC patients [7]; [10]): 10PR,; Clinical Response, number of SD (HRPC patients [7]; [10]): 10SD,; Response, Cellular Immunity (HRPC patients [7]; [10]): 23/31; Response, Humoral Immunity (HRPC patients [7]; [10]): 27/32; Clinical Response, number of PD (HRPC patients [7]; [11]): 5PD; Response, Cellular Immunity (HRPC patients [7]; [11]): 0/3; Response, Humoral Immunity (HRPC patients [7]; [11]): 1/2; Immune suppression (PBMCs [8]; full dose (560 mg/day) with peptide vaccination, cases 2 and 3, recovered on discontinuing): severe immune suppression; Immune suppression (PBMCs [8]; half/low dose (280 mg/day) with the peptide, 8 cases tested): no significant immune suppression
DYSARWNEI [SART 293-101] |  | C (0.05 < p < 0.1 and 50 ≦ net) | 376.8 pg/ml and 162.5 pg/ml and 228.5** pg/ml | 22.8 pg/mL and 125 pg/mL and 57.3 pg/mL | − | − | − | − | + and − (2×) | + (2×) and − |  |  | 
HYRKWIKDTI [PSA248] |  |  | 100 pg/ml and 505.8 pg/ml and 303.5 pg/ml and 149.8 pg/ml and 0 pg/ml (4×) and 9.3 pg/ml and 21.3 pg/ml and 38.8 pg/ml and 243.5 pg/ml and 9.8 pg/ml | 19.5 pg/ml and 28.3 pg/ml and 12.8 pg/ml and 14.3 pg/ml and 6.5 pg/ml and 18.5 pg/ml and 0 pg/ml (2×) and 375 pg/ml and 17 pg/ml and 250 pg/ml and 18 pg/ml and 32.8 pg/ml and 23.8 pg/ml |  |  |  |  | + (8×) and ++ (4×) | + (12×) and − (2×) |  |  | 
DYLRSVLEDF [lck488-497] | ABB | C (0.05 < p < 0.1 and 50 ≦ net) and B (p ≦ 0.05 and 25 ≦ net < 50) and ArAB | 99 pg/mL and 26.8 pg/mL and 26.5 pg/mL and 19.8 pg/mL | 29.8 pg/mL and 36.5 pg/mL and 31.8 pg/mL and 30.5 pg/mL | − (3×) and + | − (2×) and + | + (2×) and − | − | − | + (3×) and − |  |  | 
AYIDFEMKI [SART 3315-323] | A (p ≦ 0.05 and 50 ≦ net) |  | 39.3 pg/ml and 12.8 pg/ml and 154** pg/ml and 26.5 pg/ml and 255 pg/ml | 47.8 pg/mL and 4 pg/mL and 0 pg/mL and 112.3 pg/mL and 44.8 pg/mL and 15 pg/mL | − and + | − | − | − and + | + (2×) and − (3×) | − (4×) and + (2×) | Ar (p* ≦ 0.1 and 500 ≦ net**) | ArArArB | 
TFDYLRSVL [lck486] |  |  | 58.5 pg/mL | 375 pg/mL |  |  |  |  | + | − |  |  | 
